The subject of one assay is 3T3 L1 adipocytes. The note with it: cited from earlier work.
The test system of assay [1] is ob/ob mice. Put plainly: Serum metabolite and insulin levels in ob/ob mice after ZAG administration. The note with it: ob/ob mice, oral ZAG + propanolol. The class given is in vivo, mouse. The text has this:
FCS (foetal calf serum) was from Biosera (Sussex, UK), while DMEM (Dulbecco's modified Eagles Medium) was from PAA (Somerset, UK) and Freestyle medium was purchased from Invitrogen (Paisley, UK). Hybond A nitrocellulose membranes and peroxidise—conjugated rabbit anti-mouse antibody were from GE Healthcare (Bucks, UK), while enhanced chemiluminescene (ECL) development kits were purchased from Thermo Scientific (Northumberland, UK). Mouse monoclonal antibodies to full-length human and mouse ZAG were from Santa Cruz Biotechnology (Santa Cruz, Calif. A mouse insulin ELISA kit was purchased from DRG (Marburg, Germany) and glucose measurements in both urine and plasma were made using a Boots (Nottingham, UK) glucose kit. L-[U-^14C] tyrosine (sp.act 16.7 GBqmmol^−1) was purchased from Perkin Elmer Ltd, (Cambridge, UK), while 2-[1-^14C] deoxy-D-glucose (sp.act 1.85 GBqmmol^−1) was from American Radiolabeled Chemicals (Cardiff, UK).
(§1) Obese (ob/ob) mice (average weight 65 g) were bred in a colony, and were kept in an air conditioned room at 22+2° C. with ad libitum feeding of a rat and mouse breeding diet (Special Diet Services, Witham, UK) and tap water. […] Animals were grouped (n=5) to receive either ZAG/PBS (50 μg day^−1), or PBS in their drinking water, the experiment was repeated three times after a power analysis was performed. […] The ZAG was replaced every 48 h. One group of mice receiving ZAG were also administered propanolol (40 mgkg^−1, p.o.) daily. The dose of ZAG was chosen to be the same as that previously administered i.v. (1), so that a direct comparison could be made, between the two routes. Body weight, food and water intake, urinary glucose excretion, and body temperature, determined by the use of a rectal thermometer (RS Components, Northants, UK), were measured daily. A glucose tolerance test was performed on day 3. Animals were fasted for 12 h, followed by oral administration of glucose (1 gkg^−1 in a volume of 100 μl by gavage). Blood samples were removed from the tail vein at 15, 30, 60 and 120 min and used for the measurement of glucose. Urinary glucose was measured by collecting 0.5 ml urine and testing glucose concentration using a Boots glucose monitor. After 8 days of treatment the animals were terminated by cervical dislocation, tissues were removed and rapidly frozen in liquid nitrogen, and maintained at −80° C. Future work would be to repeat this work in diet-induced animals as alternative to a model with gene alteration, although previous studies have shown the ob/ob mouse to be a good indicator of potential human treatments. Animal studies were conducted under Home Office Licence according to the UKCCCR Guidelines for the care and use of laboratory animals.

The next assay relates to murine ZAG. Put plainly: Western blotting of murine ZAG in serum and WAT of ob/ob mice. In kind it is in vivo, mouse. The settings on record: ob/ob mice, oral ZAG + propanolol 40 mgkg^−1. On the procedure:
Tissues were thawed, washed in PBS and lysed in Phosphosafe™ Extraction reagent for 5 min at room temperature, followed by sonication at 4° C. Cytosolic protein (5-20 ug) formed by centrifugation at 18,000 g for 5 min at 4° C., was resolved on 12% SDS PAGE by electrophoresis at 180V for about 1 h. To determine ZAG in serum 30 μl samples containing 20 μg total protein were electrophoresed as above. Protein was transferred to 0.45 μm nitrocellulose membranes, which had been blocked with 5% (w/v) non-fat dried milk (Marvel) in Tris-buffered saline, pH 7.5, at 4° C. overnight. Membranes were washed for 15 min in 0.1% Tween 20 buffered saline prior to adding the primary antibodies. Both primary and secondary antibodies were used at a dilution of 1:1000. Incubation was for 1 h at room temperature, and development was by ECL. Blots were scanned by a densitometer to quantify differences.
(In general: Immunoblotting shows a protein as a band on a membrane.)

The subject of assay [2] is ob/ob mice. Briefly: Oral ZAG in drinking water to ob/ob mice: body weight, rectal temperature, urinary glucose excretion. The class given is in vivo, mouse. On the procedure: as §1, with “One group of mice receiving ZAG were also administered propanolol (40 mgkg^−1, p.o.) daily.” left out
Assay [3] relates to ob/ob mice. Briefly: Oral glucose tolerance test in ob/ob mice after 3 days of oral ZAG. The note with it: oral ZAG + propanolol 40 mgkg^−1, day 3. In kind it is in vivo, mouse. On the procedure: Animals were grouped (n=5) to receive either ZAG/PBS (50 μg day^−1), or PBS in their drinking water, the experiment was repeated three times after a power analysis was performed. […] The ZAG was replaced every 48 h. One group of mice receiving ZAG were also administered propanolol (40 mgkg^−1, p.o.) daily. The dose of ZAG was chosen to be the same as that previously administered i.v. (1), so that a direct comparison could be made, between the two routes. Body weight, food and water intake, urinary glucose excretion, and body temperature, determined by the use of a rectal thermometer (RS Components, Northants, UK), were measured daily. A glucose tolerance test was performed on day 3. Animals were fasted for 12 h, followed by oral administration of glucose (1 gkg^−1 in a volume of 100 μl by gavage). Blood samples were removed from the tail vein at 15, 30, 60 and 120 min and used for the measurement of glucose. Urinary glucose was measured by collecting 0.5 ml urine and testing glucose concentration using a Boots glucose monitor. After 8 days of treatment the animals were terminated by cervical dislocation, tissues were removed and rapidly frozen in liquid nitrogen, and maintained at −80° C. […] Animal studies were conducted under Home Office Licence according to the UKCCCR Guidelines for the care and use of laboratory animals.

The subject of another assay is gastrocnemius muscle. Briefly: Glucose uptake ex vivo into isolated muscle of treated ob/ob mice. The class given is in vivo, mouse. The settings on record: ob/ob mice treated 8 days; presence of insulin.
The test system of assay [4] is white and brown adipocytes. Put plainly: Glucose uptake ex vivo into white and brown adipocytes of treated ob/ob mice. The settings on record: ob/ob mice treated 8 days; absence and presence of insulin (10 nM). The class given is in vivo, mouse. The method, then: Single cell suspensions of white and brown adipocytes were obtained by incubation of minced epididymal subcutaneous and visceral WAT and BAT for 2 and 2.5 h, respectively, with Krebs-Ringer bicarbonate (KRBB) containing 1.5 mgml^−1 collagenase and 4% BSA under 95% oxygen-5% CO2 at 37° C. Adipocytes were washed twice in 1 ml KRBB, pH7.2, and then incubated for 10 min at room temperature in 0.5 ml KRBB, containing 18.5 MBq 2-[1-^14C] deoxy-D-glucose (2-DG), together with non-radioactive 2-DG, to give a final concentration of 0.1 mM, in the absence or presence of insulin (10 nM). Uptake was terminated by addition of 1 ml ice-cold KRBB without glucose. Adipocytes were washed three times with 1 ml KRBB and lysed by the addition of 0.5 ml 1M NaOH. The uptake of 2-[1-^14C] DG was determined by liquid scintillation counting.

Setting [5] is: oral ZAG + propanolol 40 mgkg^−1.

The structures appear in SMILES notation. “Also recorded” adds a separate entry of the source.

The source of these data is patent publication US10172917B2, “Targeted oesophageal administration of ZN-α2-glycoproteins (ZAG), methods and formulations thereof” (ASTON UNIVERSITY, priority 2012, dated 2019).

In the case of `C[C@H](Cc1ccc(OCC(=O)O)cc1)NC[C@H](O)c1cccc(Cl)c1` [BRL37344], the “levels of ZAG mRNA” value in the assay on 3T3 L1 adipocytes is recorded as “increase”.
With `CC(C)NC[C@H](O)COc1cccc2ccccc12` (racemic) [propanolol], in the assay on ob/ob mice [1], the “effect of propanolol on decrease in serum glucose after ZAG administration” value is given as “completely attenuated” and the “effect of propanolol on decrease in serum insulin levels after ZAG administration” value is “completely attenuated”. Moreover, the “murine ZAG in the serum of animals given ZAG and co-administered propanolol” value in the assay with murine ZAG was “no increase; also recorded: attenuated”. For the same compound, in the assay with ob/ob mice [2] (PBS + propanolol), the “effect of propanolol on weight gain of mice administered PBS” value is “no effect”. The “effect of propanolol on ZAG-induced weight loss” value in the assay on ob/ob mice [2] (oral ZAG 50 μg daily + propanolol 40 mg/kg po daily) is on record as “blocked; also recorded: attenuated”. For the same compound, in the assay on ob/ob mice [2] (oral ZAG + propanolol 20 mgkg^−1), the “effect of propanolol on ZAG-induced weight loss” value is “did not prevent the weight loss”. In the assay with ob/ob mice [2] (setting [5]), the “effect of propanolol on ZAG induced increase in rectal temperature” value is on record as “completely attenuated” and the “effect of propanolol on ZAG induced reduction in urinary excretion of glucose” value is recorded as “completely attenuated”. For the same compound, in the assay with ob/ob mice [3], the “effect of propanolol on ZAG-induced increase in insulin sensitivity” value is given as “blocked; also recorded: attenuated” and the “effect of propanolol on ZAG-reduced peak blood glucose concentration / improvement in glucose disposal in glucose tolerance test” value was “blocked; also recorded: attenuated”. The “effect of propanolol on ZAG-induced glucose uptake ex vivo into gastrocnemius muscle” value in the assay with gastrocnemius muscle is recorded as “attenuated”. Also, in assay [4], the “effect of propanolol on ZAG-induced glucose uptake into BAT” value is recorded as “attenuated”; the “effect of propanolol on ZAG-induced stimulation of glucose uptake ex vivo into epididymal, subcutaneous and visceral adipocytes” value was “attenuated”.
